Publication PMC7024557, “Synthesis of Novel Structural Hybrids between Aza-Heterocycles and Azelaic Acid Moiety with a Specific Activity on Osteosarcoma Cells” (Molecules, 2020)
One block for each molecule: values may come before it.

Tests used:
[1] = tested on: HT29 (human colon adenocarcinoma); assay: MTT assay, cell viability; type: cell-based; conditions: HT-29, after 48 h of treatment, n.a. = non active
From the text: (§1) Cell lines included in the evaluation of toxicity profiles were malignant U2OS, HT29, PC3, and IGROV1, and a normal human adult fibroblast cell line HDFa.
(§2) The human prostate cancer (PC3), human colon cancer (HT29), human bone osteosarcoma (U2OS), and normal human adult fibroblast (HDFa) cell lines were purchased from American Type Culture Collection (ATCC, Manassas, VA, USA), while the human ovarian cancer cell line (IGROV1) was kindly provided by Istituto Nazionale Tumori (IRCCS, Milano, Italy). Cells were cultured in Roswell Park Memorial Institute (RPMI)-1640 medium (Labtek Eurobio, Milan, Italy), supplemented with 10% fetal calf serum (FCS; Euroclone, Milano, Italy) and 2mM L-glutamine (Sigma-Aldrich, Milano, Italy), at 37 °C and 5% CO2 atmosphere. The compounds were dissolved in dimethyl sulfoxide (DMSO) in a 60 mM stock solution. In cell treatments, the final DMSO concentration never exceeded 0.1%.
(§3) U2OS were seeded at 1.5 × 10^4 cells/well in a 96-well culture plastic plate (Orange Scientific, Braine-l’Alleud, Belgium) and, after 24 h of growth, cells were exposed for additional 48 h to increasing concentrations of compounds (0.1 µM and […]) solubilized in RPMI-1640 medium. On the day of measurement, the culture medium was replaced with 0.1 mL of 3-(4,5-dimethylthiazolyl-2)-2,5-diphenyltetrazolium bromide (MTT, Sigma-Aldrich) dissolved in phosphate-buffered saline (PBS) at the concentration of 0.2 mg/mL, and samples were incubated for 2 h at 37 °C. To dissolve the blue-violet formazan salt crystals formed, 0.1 mL of isopropyl alcohol was added to each well and incubated for 20 min. The absorbance at 570 nm was measured using a multiwell plate reader (Wallac Victor2, PerkinElmer, Milano, Italia), and viability was compared with that of untreated cells, used as controls.

[2] = tested on: U2OS (human osteosarcoma); assay: MTT assay, cell viability; type: cell-based; conditions: for IC50: Homo sapiens, U2OS, after 48 h of treatment, n.a. = non active; for sensitivity of U2OS to the compound (IC50 analysis): only U2OS among tumor cell lines
From the text: as §1, §2, §3

U2OS cell line = tested on: U2OS cell line; parameters: method as in PMID 31646829, PMID 26298721; conditions: ref [30],[31]; cited from earlier work
U2OS cells [3] = assay: Cell-cycle assay by flow cytometry (PI fluorescence, forward scatter); type: cell-based, human; conditions: 24 h; for mean channel of FS distribution (nuclear size): U2OS nuclei, 35 μM of 6, 50 μM of 5a or 8a, control cells 730; for effect on cell-cycle progression: U2OS, 35 μM of compound 6, 50 μM of 5a, 50 μM of 8a
Experimental: To infer whether their effects were due to interference with cell-cycle progression, DNA profiles of cultured cells were examined by flow cytometry. […] As clear from Figure 3, the nuclei in all cell-cycle phases were affected.
For the cell-cycle assay, U2OS cells were treated for 24 h with 35 μM of compound 6, 50 μM of 5a, or 50 μM of 8a, detached with 0.11% trypsin (Sigma-Aldrich, S.Louis, MO, USA)/0.02% ethylenediaminetetraacetic acid (EDTA) (Sigma-Aldrich, S.Louis, MO, USA), washed in PBS, and centrifuged. The pellet was resuspended in 0.01% Nonidet P-40 (Sigma-Aldrich, S.Louis, MO, USA), 10 μg/mL RNase (Sigma-Aldrich, S.Louis, MO), 0.1% sodium citrate, and 50 μg/mL propidium iodide (PI) (Sigma-Aldrich, S.Louis, MO, USA), for 30 min at room temperature in the dark. PI fluorescence and forward scatter (FS) signals were analyzed using a Beckman Coulter Epics XL-MCL flow cytometer. DNA distribution in the cell cycle was analyzed by the MODFIT 5.0 software. As the signal collected by a multichannel analyzer, the mean of the FS distribution is expressed as mean channel.

[4] = tested on: PC3 (human prostatic carcinoma); assay: MTT assay, cell viability; type: cell-based; conditions: after 48 h of treatment, n.a. = non active
From the text: as §1, §2, §3

U2OS cells [5] = assay: Hoechst 33,342 nuclear staining, confocal microscopy; type: cell-based, human; conditions: 24 h
Experimental: These effects induced by the above compounds on histone acetylation are not associated with events involved in apoptotic death.
Nuclear morphology was assayed using a specific dye Hoechst 33,342. U2OS treated cells were washed, fixed, and then stained with 1 µM Hoechst 33,342 (Sigma-Aldrich, St Louis, MO, USA) for 15 min. Samples were embedded in Mowiol and analyzed using a Nikon C1s confocal laser-scanning microscope, equipped with a Nikon PlanApo 40×, 1.4 numerical aperture (NA) oil immersion lens. Images were quantified by ImageJ software (IMAJ 1.x).

[6] = tested on: acetylated histones H2/H3 and H4 in U2OS cells; assay: Histone acetylation, Western blot with anti-acetyl lysine antibody; type: cell-based, human; conditions: 6 h, densitometry normalized on histone H1, vs control
From the text: To identify acetylated histones, we analyzed the nuclear cell lysates by Western blot using a 15% polyacrylamide gel electrophoresis. After electrophoresis, the proteins were transferred to a nitrocellulose membrane and then immunoblotted with an anti-acetyl lysine monoclonal antibody. […] Differences in the density of bands are thought to reflect differences in protein acetylation levels. Histone acetylation signals were quantified by densitometry and normalized on histone H1. Histones H2/H3 acetylation increased by 28% upon treatment with 6 for 6 h with no effect on H4 acetylation, whereas compound 8a induced hyperacetylation by 30% on histone H4 only.
U2OS were cultured with 5a, 6, or 8a, for 6 h, and the histone fraction was immediately extracted. Cells were harvested using 0.11% trypsin and 0.02% EDTA, washed twice with 10 mM sodium butyrate (NaBu) in PBS, and nuclei were isolated according to Amellem et al.. The nuclear pellet was suspended in 0.1 mL of ice-cold water using a Vortex mixer, and concentrated H2SO4 was added to the suspension to give a final concentration of 0.4 N. After incubation at 4 °C for 1 h, the suspension was centrifuged for 5 min at 14,000× g, and the supernatant was taken and mixed with 1 mL of acetone. After overnight incubation at −20 °C, the coagulate material was collected by microcentrifugation and air-dried, and proteins were quantified using a protein assay kit (Bio-Rad, Hercules, CA, USA). Histones were analyzed as previously described. Briefly, histones were resolved by 15% SDS-PAGE and immunoblotted with anti-acetylated lysine antibody (Cell Signaling Technology, Beverly, MA, USA); the detection of immunoreactive bands was performed with a secondary antibody conjugated with horseradish peroxidase and developed with an enhanced chemiluminescence (ECL) system, developed with the enhanced chemiluminescence system Clarity Western (Bio-Rad, Hercules, CA, USA), and quantification was done by Fluor-S Max MultiImager (Bio-Rad). Histone acetylation signals were quantified by densitometry and normalized on histone H1.

[7] = tested on: IGROV1 (human ovarian carcinoma); assay: MTT assay, cell viability; type: cell-based; conditions: IGROV-1, after 48 h of treatment, n.a. = non active
From the text: as §1, §2, §3

[8] = tested on: human osteosarcoma growth; parameters: method as in PMID 24344034, PMID 30697272; conditions: ref [32],[33]; read-out: IC50, inhibition of human osteosarcoma growth; cited from earlier work

SMILES: COc1cccc2c1C(=O)c1c(O)c3c(c(O)c1C2=O)C[C@@](O)(C(=O)CO)C[C@@H]3O[C@H]1C[C@H](N)[C@H](O)[C@H](C)O1 [doxorubicin]
IC50 (U2OS cell line): 0.5 µM

SMILES: CCCC(=O)[O-].[Na+] [sodium butyrate]
IC50 [8]: 5 µM

SMILES: CC(/C=C/C(=O)NO)=C\[C@@H](C)C(=O)c1ccc(N(C)C)cc1 [trichostatin A]
IC50 [8]: 0.5 µM

SMILES: O=c1[nH]cc(F)c(=O)[nH]1 [5-fluorouracile]
IC50 (U2OS cell line): 0.3 µM

SMILES: N.N.[Cl][Pt][Cl] [Cisplatin]
IC50 (U2OS cell line): 1.67 µM

SMILES: COC(=O)CCCCCCCC(=O)N(C(=O)CCCCCCCC(=O)OC)c1ncccn1 [compound 6, Dimethyl 9,9’-(pyrimidin-2-ylazanediyl)bis(9-oxononanoate)]
mean channel of FS distribution (nuclear size) (U2OS cells [3]): 905
effect on cell-cycle progression (U2OS cells [3]): increase in the gap 0/gap 1 (G0/G1) fraction, with concomitant decrease in the G2/mitosis (M) phase
IC50 [1]: > 100 µM
IC50 [2]: 35 µM
sensitivity of U2OS to the compound (IC50 analysis) [2]: sensitive
nuclear morphology by Hoechst 33,342 staining (U2OS cells [5]): increase in nuclear size
increase of histone H4 acetylation [6]: no effect
increase of histones H2/H3 acetylation [6]: 28%

The next lines start with results.

melting point: 59 to 60 °C
IC50 [1]: > 100 µM
IC50 [2]: > 100 µM
SMILES: COC(=O)CCCCCCCC(=O)Nc1ccccn1 [4a, Methyl 9-oxo-9-(pyridin-2-ylamino)nonanoate]

melting point: 83 to 85 °C
IC50 [2]: > 100 µM
SMILES: COC(=O)CCCCCCCC(=O)Nc1ccncc1 [4c, Methyl 9-oxo-9-(pyridin-4-ylamino)nonanoate]

IC50 [4]: > 100 µM
IC50 [1]: > 100 µM
IC50 [2]: 50 µM
sensitivity of U2OS to the compound (IC50 analysis) [2]: sensitive
SMILES: COC(=O)CCCCCCCC(=O)n1cnc2ccccc21 [8a, Methyl 9-(1H-benzo[d]imidazol-1-yl)-9-oxononanoate]
mean channel of FS distribution (nuclear size) (U2OS cells [3]): 780
effect on cell-cycle progression (U2OS cells [3]): slight accumulation in the synthesis (S) phase
nuclear morphology by Hoechst 33,342 staining (U2OS cells [5]): dim staining of nuclei
increase of histone H4 acetylation [6]: 30%

melting point: 92 to 94.2 °C
IC50 [2]: > 100 µM
IC50 [7]: > 100 µM
SMILES: COC(=O)CCCCCCCC(=O)Nc1ccncn1 [5b, Methyl 9-oxo-9-(pyrimidin-4-ylamino)nonanoate]

melting point: 55.5 to 57.2 °C
IC50 [7]: > 100 µM
SMILES: COC(=O)CCCCCCCC(=O)n1nnc2ccccc21 [8b, Methyl 9-(1H-benzo[d][1,2,3]triazol-1-yl)-9-oxononanoate]

melting point: 75.5 to 77.7 °C
IC50 [1]: > 100 µM
IC50 [2]: > 100 µM
SMILES: COC(=O)CCCCCCCC(=O)Nc1cccnc1 [4b, Methyl 9-oxo-9-(pyridin-3-ylamino)nonanoate]

IC50 [2]: 50 µM
sensitivity of U2OS to the compound (IC50 analysis) [2]: sensitive
SMILES: COC(=O)CCCCCCCC(=O)Nc1ncccn1 [5a, Methyl 9-oxo-9-(pyrimidin-2-ylamino)nonanoate]
mean channel of FS distribution (nuclear size) (U2OS cells [3]): 735
effect on cell-cycle progression (U2OS cells [3]): slight accumulation in the synthesis (S) phase
nuclear morphology by Hoechst 33,342 staining (U2OS cells [5]): dim staining of nuclei
increase of histone H4 acetylation [6]: 22%
increase of histones H2/H3 acetylation [6]: 89%

melting point: 78.6 to 80.2 °C
IC50 [4]: > 100 µM
IC50 [1]: > 100 µM
IC50 [7]: > 100 µM
SMILES: COC(=O)CCCCCCCC(=O)Nc1cncnc1 [5c, Methyl 9-oxo-9-(pyrimidin-5-ylamino)nonanoate]
